Experimental data taken from PubChem BioAssay (NCI).
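Test compounds were applied to cells in 96-well plates for 48 hours at 5 doses. GI50: concentration for 50% inhibition of growth. Definition used: TGI = concentration required for complete inhibition of growth.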

Experiments:
Test in all cases: NCI tumour cell line growth inhibition, 48 h
DMS 273 small cell lung = test system: DMS 273 small cell lung
HOP-18 NSCLC = test system: HOP-18 NSCLC
SNB-78 CNS = test system: SNB-78 CNS
TK-10 renal = test system: TK-10 renal
XF 498 CNS = test system: XF 498 CNS
BT-549 breast = test system: BT-549 breast
MCF7 breast = test system: MCF7 breast
NCI/ADR-RES ovarian = test system: NCI/ADR-RES ovarian
PC-3 prostate = test system: PC-3 prostate
T-47D breast = test system: T-47D breast

| Compound | TGI (DMS 273 small cell lung) [µM] | TGI (HOP-18 NSCLC) [µM] | TGI (SNB-78 CNS) [µM] | TGI (TK-10 renal) [µM] | TGI (XF 498 CNS) [µM] | GI50 (DMS 273 small cell lung) [µM] | GI50 (HOP-18 NSCLC) [µM] | GI50 (TK-10 renal) [µM] | GI50 (XF 498 CNS) [µM] | GI50 (BT-549 breast) [µM] | TGI (BT-549 breast) [µM] | GI50 (MCF7 breast) [µM] | TGI (MCF7 breast) [µM] | GI50 (NCI/ADR-RES ovarian) [µM] | TGI (NCI/ADR-RES ovarian) [µM] | GI50 (PC-3 prostate) [µM] | TGI (PC-3 prostate) [µM] | GI50 (T-47D breast) [µM] | TGI (T-47D breast) [µM] |
| --- | --- | --- | --- | --- | --- | --- | --- | --- | --- | --- | --- | --- | --- | --- | --- | --- | --- | --- | --- |
| CCC1CCc2c(c(=O)oc3c2cc(OC)c2cccc(OC)c23)C1 (stereo unspecified) | > 100 | > 100 | > 100 | > 100 | 78.6 |  |  |  |  |  |  |  |  |  |  |  |  |  |  |
| COc1c[c]([Hg][O]C(C)=O)c(OC)c(NC(=O)CC(C)=O)[c]1[Hg][O]C(C)=O | 36.7 | 4.62 |  | 14 | 3.2 | 13.6 | 1.96 | 4.46 | 1.65 |  |  |  |  |  |  |  |  |  |  |
| COC1(OC)CC2C(=O)N(Cc3ccccc3)C1C=C2S(=O)(=O)c1ccccc1 (stereo unspecified) |  | 31.9 | 74.4 | 49.1 | 31.7 |  |  |  |  |  |  |  |  |  |  |  |  |  |  |
| O=C(CSC1CCc2ccccc21)N/N=C/c1ccccc1O (stereo unspecified) |  |  |  | 73.8 |  |  |  | 6.1 |  | 5.46 | 34.2 | 2.89 | > 100 | 3.44 | 35 | 3.89 | 75.8 | 7.04 | > 100 |
| CCn1c(=O)c2c(=O)c3c4c(oc3oc2c2ccccc21)C(=O)c1ccccc1C4=O |  |  |  | > 100 |  |  |  | > 71.5 |  | > 36 | > 100 | > 100 | > 100 | 13.8 | > 100 | 8.71 | > 100 | 0.372 | 2.87 |
| Cc1nc([N+](=O)[O-])cn1CC(=N)N | > 100 |  |  | > 100 |  |  |  |  |  |  |  |  |  |  |  |  |  |  |  |
| CCOP(=O)(OCC)OC1C=CC2CCC1C2 (stereo unspecified) | > 100 | > 100 | > 100 | > 100 | > 100 |  |  |  |  |  |  |  |  |  |  |  |  |  |  |
| N#CC(C(=O)C(=O)Nc1ccc(Cl)cc1)c1ccccc1 (stereo unspecified) | > 100 | > 100 | > 100 | > 100 |  |  |  |  |  |  |  |  |  |  |  |  |  |  |  |
| CC(C)C(=O)NS(=O)(=O)c1ccccc1 |  | > 100 | > 100 | > 100 | > 100 |  |  |  |  |  |  |  |  |  |  |  |  |  |  |
| C/C(CC(=O)Nc1cccc(Cl)c1C)=N\NC(=O)c1ccncc1 | > 100 |  | > 100 | > 100 | > 100 |  |  |  |  |  |  |  |  |  |  |  |  |  |  |
| COc1ccc(CCNC(=O)c2ccc(NC3=C(Cl)C(=O)N(Cc4ccccc4)C3=O)cc2)cc1OC |  |  |  | 70.9 |  |  |  | 11.5 |  | 7.68 | > 100 | 6.32 | > 100 | 22.3 | 64.4 | 6.02 | 27.8 | 5.31 | > 100 |
| COc1ccc(O)c(C(=O)c2ccc(C(=O)N[C@H]3CCCNC[C@@H]3NC(=O)c3ccncc3)cc2)c1F |  |  |  | > 25 |  |  |  | 0.684 |  | 1.27 | 13.7 | 0.823 | > 25 | > 25 | > 25 | > 21.6 | > 25 | 0.463 | > 25 |
| CSc1ccc2c(c1)C(=O)c1c-2n(CCCBr)c(=O)c2cc([N+](=O)[O-])ccc12 |  |  |  | > 100 |  |  |  | > 100 |  | 80.7 | > 100 | 1.58 | > 100 | 5.5 | > 100 | 25.8 | > 100 | 17.8 | > 100 |
| NC(=O)c1cc(S(=O)(=O)Nc2nnc(-c3ccccc3)c(-c3ccccc3)n2)c(SCc2ccccc2)cc1Cl |  |  |  | > 100 |  |  |  | > 100 |  | > 53.1 | > 89.7 | 30.2 | > 66.4 | > 100 | > 100 | > 62.2 | > 100 | > 100 | > 100 |
| C=C1C(=O)OC2CC(C)C3(O)CCC(=O)C3(C)CC12 (stereo unspecified) |  |  |  | 99.1 |  |  |  |  |  |  | > 100 |  | > 100 |  | > 100 |  | > 100 |  | > 100 |
| O=CN1CCN(CC(O)CN2CCCCC2)CC1 (stereo unspecified) |  |  |  | > 100 |  |  |  |  |  |  | > 100 |  | > 100 |  | > 100 |  | > 100 |  | > 100 |
| O=[N+]([O-])c1ccc(N2N=C(c3ccc(NCc4nc5ccccc5[nH]4)cc3)CC2c2ccco2)cc1 (stereo unspecified) | 51.8 | > 100 |  | > 100 |  |  |  |  |  |  |  |  |  |  |  |  |  |  |  |
| Cc1cc(S(=O)(=O)O)c(NC(=O)C(=O)Cc2cc(=O)oc3cc(O)ccc23)cc1Cl | > 100 | > 100 |  | > 100 |  |  |  |  |  |  |  |  |  |  |  |  |  |  |  |
| CCN(Cc1ccccc1C)c1ccc(CO)c(Cl)c1 |  |  |  | 0.863 |  |  |  | 0.0944 |  | 15.8 | 30.1 | 2 | 14.7 | 14.5 | 43.8 | 12.1 | 25.4 | 0.244 | 2.19 |
| O=C(Nc1ccc(F)cc1)c1cc(S(=O)(=O)Nc2nc3ccccc3o2)c(SCc2ccccc2)cc1Cl |  |  |  | 31.5 |  |  |  | 16.4 |  | 18.5 | 38.9 | 24.8 | 63.7 | 22.8 | 54.4 | 24.4 | 53.5 | 28.3 | > 100 |
| CCCN1CN(C(C(=O)N[C@@H]2C(=O)N3C2SC(C)(C)C3C(=O)O)c2ccc(O)cc2)CSC1=S (stereo partly specified) | > 100 | > 100 |  | > 100 | > 100 |  |  |  |  |  |  |  |  |  |  |  |  |  |  |
| CN[C@@H](C)[C@@H](NC)c1ccccc1 | > 100 | > 100 | > 100 | > 100 |  |  |  |  |  |  |  |  |  |  |  |  |  |  |  |
| Cc1cccc(C)c1NC(=O)C(=O)C(C(=O)c1ccccc1-c1ccccc1)C1OC(=O)c2ccccc21 (stereo unspecified) |  |  | > 100 | 53.7 | 30.9 |  |  |  |  |  |  |  |  |  |  |  |  |  |  |
